One data set relates to MCF7. In words: Antiproliferative activity against human MCF7 cells over expressing GLUT1 measured after 72 hrs by MTT assay. In kind it is functional, cell-based. Conditions: MCF7, 72 h.
Data set [1] in a line: Cytotoxicity against HUVEC measured after 72 hrs by MTT assay. It is filed as toxicity, cell-based. Conditions: human, HUVEC cells.
A further data set concerns Hep 3B2. Kind of data set: Antiproliferative activity against human Hep3B cells measured after 72 hrs by MTT assay. It is filed as functional, cell-based.
The test system of data set [2] is HT-29. In words: Antiproliferative activity against human HT-29 cells over expressing GLUT1 assessed as cell viability measured after 48 hrs in presence of GLUT1-specific inhibitor quercetin by MTT assay relative to control. It is filed as functional.
In data set [3] the test system is HT-29. Kind of data set: Antiproliferative activity against human HT-29 cells over expressing GLUT1 assessed as cell viability measured after 48 hrs by MTT assay relative to control. It is filed as functional.
Data set [4] relates to HT-29. Kind of data set: Antiproliferative activity against human HT-29 cells over expressing GLUT1 measured after 72 hrs by MTT assay. It is filed as functional, cell-based. The settings on record: HT-29, 72 h.
Data set [5] can be described thus: Selectivity ratio of IC50 for human Hep3B cells to IC50 for human HT-29 cells. In kind it is functional.
Data set [6] in a line: Selectivity ratio of IC50 for human Hep3B cells to IC50 for human MCF7 cells. It is filed as functional.
In data set [7] the test system is HT-29. Kind of data set: Antiproliferative activity against human HT-29 cells over expressing GLUT1 assessed as cell viability at 8 uM measured after 48 hrs in presence of GLUT1-specific inhibitor quercetin by MTT assay relative to control. In kind it is functional. The settings on record: read-out: Activity.
Data set [8] relates to HT-29. Kind of data set: Antiproliferative activity against human HT-29 cells over expressing GLUT1 assessed as cell viability at 4 uM measured after 48 hrs in presence of GLUT1-specific inhibitor quercetin by MTT assay relative to control. In kind it is functional. Conditions: read-out: Activity.
Data set [9] relates to HT-29. In words: Antiproliferative activity against human HT-29 cells over expressing GLUT1 assessed as cell viability at 4 uM measured after 48 hrs by MTT assay relative to control. It is filed as functional. Conditions: read-out: Activity.
In a further data set the target is Tubulin (Sus scrofa) (UniProt P02554+P02550). Kind of data set: Inhibition of porcine brain tubulin polymerization assessed as inhibition of microtubule polymerization measured at 1 min interval for 90 mins by microplate reader method. The settings on record: dose 12.5-25 µM, DDE = dose-dependent effect.
Data set [10] concerns HT-29. Kind of data set: Antiproliferative activity against human HT-29 cells over expressing GLUT1 assessed as cell viability at 8 uM measured after 48 hrs by MTT assay relative to control. It is filed as functional. The settings on record: read-out: Activity.
Data set [11] addresses T1, Tubulin (Homo sapiens) (UniProt P68371+Q9H4B7+P0DPH7+P68366+Q13509+Q71U36+P04350+Q3ZCM7+P07437+P68363+Q9BQE3+Q6PEY2+Q13885+Q9BVA1+Q9BUF5). Kind of data set: Inhibition of tubulin polymerization in human A549 cells assessed as appearance of short microtubule at 0.766 uM measured after 24 hrs by immunofluorescence confocal microscopic analysis. In kind it is cell-based.

Data set [12] concerns the target T1, Tubulin (Homo sapiens). In words: Inhibition of tubulin polymerization in human A549 cells assessed as appearance of wrapped microtubule around nucleus at 0.766 uM measured after 24 hrs by immunofluorescence confocal microscopic analysis. It is filed as cell-based.

The structures appear in SMILES notation. The source made the active and inactive calls. No cut-off for these calls is given here.

Sequence of Tubulin (Sus scrofa) (P02550 whole entry, looked up): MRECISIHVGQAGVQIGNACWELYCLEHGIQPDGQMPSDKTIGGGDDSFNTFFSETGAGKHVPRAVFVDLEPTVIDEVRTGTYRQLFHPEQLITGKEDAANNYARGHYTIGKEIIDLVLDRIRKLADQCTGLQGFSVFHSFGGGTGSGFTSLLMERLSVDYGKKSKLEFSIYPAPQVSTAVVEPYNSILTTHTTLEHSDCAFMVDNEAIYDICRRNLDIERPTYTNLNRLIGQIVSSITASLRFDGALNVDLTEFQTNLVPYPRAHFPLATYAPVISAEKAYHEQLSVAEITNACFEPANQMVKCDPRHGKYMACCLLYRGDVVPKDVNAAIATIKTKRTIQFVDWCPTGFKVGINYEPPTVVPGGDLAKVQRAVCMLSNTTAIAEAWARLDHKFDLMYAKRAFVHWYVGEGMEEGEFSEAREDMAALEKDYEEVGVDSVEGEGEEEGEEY
Sequence of Tubulin (Sus scrofa) (P02554 whole entry, looked up): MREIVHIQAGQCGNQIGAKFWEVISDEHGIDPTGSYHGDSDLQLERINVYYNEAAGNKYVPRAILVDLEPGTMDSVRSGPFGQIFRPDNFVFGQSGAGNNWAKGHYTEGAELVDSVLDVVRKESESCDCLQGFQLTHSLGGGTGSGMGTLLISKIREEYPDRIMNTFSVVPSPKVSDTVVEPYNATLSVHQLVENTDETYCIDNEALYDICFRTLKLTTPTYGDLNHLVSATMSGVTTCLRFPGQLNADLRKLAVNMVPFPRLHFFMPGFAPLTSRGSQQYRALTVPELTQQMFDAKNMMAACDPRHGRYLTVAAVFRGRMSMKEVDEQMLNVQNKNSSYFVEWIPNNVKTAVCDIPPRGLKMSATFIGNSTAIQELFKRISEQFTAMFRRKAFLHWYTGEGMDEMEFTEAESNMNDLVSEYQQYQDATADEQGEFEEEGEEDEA

`COc1cc2c(c(OC)c1OC)-c1ccc(OC)c(=O)cc1[C@@H](NC(C)=O)CC2` [COLCHICINE]: the figures for the IC50 in the data set on MCF7 and with Hep 3B2 were 0.043 µM and 0.14 µM, respectively. This compound also showed a half-inhibitory concentration (IC50) at 72 h in data set [1] of 0.012 µM. Also, the Activity came out at 14.8% with HT-29 [2] and 12.7% in the data set on HT-29 [3].

For the compound `COc1cc2c(c(OC)c1OC)-c1ccc(OC)c(=O)cc1[C@@H](NC(=O)CSCC(=O)OC[C@H]1OC(O)[C@H](O)[C@@H](O)[C@@H]1O)CC2` (some centres not stated), the IC50 turned out to be 1.16 µM with HT-29 [4], 3.56 µM in the data set on MCF7 and 9.26 µM in the data set with Hep 3B2. Further, the entries for the “Ratio IC50” value in [5] and in data set [6] were 7.98 and 2.6, respectively.

In the case of `COc1cc2c(c(OC)c1OC)-c1ccc(OC)c(=O)cc1[C@@H](NC(=O)CCCCC(=O)O[C@H]1[C@H](O)[C@@H](CO)OC(O)[C@@H]1O)CC2` (some centres not stated), the IC50 in the data set on HT-29 [4], with MCF7 and in the data set on Hep 3B2 was more than 10 µM each time.

`COc1cc2c(c(OC)c1OC)-c1ccc(OC)c(=O)cc1[C@@H](NC(=O)COCC(=O)O[C@H]1[C@H](O)[C@@H](CO)OC(O)[C@@H]1O)CC2` (some centres not stated): the IC50 is 0.83 µM in the data set with HT-29 [4], 1.2 µM with MCF7 and more than 10 µM in the data set on Hep 3B2.

As for `COc1cc2c(c(OC)c1OC)-c1ccc(OC)c(=O)cc1[C@@H](NC(=O)COCC(=O)OC[C@H]1OC(O)[C@H](O)[C@@H](O)[C@@H]1O)CC2` (some centres not stated), the IC50 amounted to 0.24 µM in the data set on HT-29 [4], 3.08 µM in the data set with MCF7 and 4.57 µM in the data set with Hep 3B2. The entries for the “Ratio IC50” value in data set [5] and in data set [6] were 19.04 and 1.48, respectively.

Turning to `COc1cc2c(c(OC)c1OC)-c1ccc(OC)c(=O)cc1[C@@H](NC(=O)COCC(=O)OC[C@H]1OC(O)[C@@H](O)[C@@H](O)[C@@H]1O)CC2` (some centres not stated), the IC50 in the data set with HT-29 [4] was found to be 2.93 µM; in the data set on MCF7, 2.2 µM; in the data set with Hep 3B2, 6.43 µM. For the same compound, the results for the “Ratio IC50” value in data set [5] and in data set [6] were 2.19 and 2.92, respectively.

For the compound `COc1cc2c(c(OC)c1OC)-c1ccc(OC)c(=O)cc1[C@@H](NC(=O)CCCC(=O)OC[C@H]1OC(O)[C@@H](O)[C@@H](O)[C@@H]1O)CC2` (some centres not stated), the IC50 in the data set with HT-29 [4], in the data set with MCF7 and with Hep 3B2 was more than 10 µM throughout.

With `COc1cc2c(c(OC)c1OC)-c1ccc(OC)c(=O)cc1[C@@H](NC(=O)CCCCC(=O)OC[C@H]1OC(O)[C@@H](O)[C@@H](O)[C@@H]1O)CC2` (some centres not stated), the IC50 with HT-29 [4], with MCF7 and in the data set on Hep 3B2 was more than 10 µM in each case.

`COc1cc2c(c(OC)c1OC)-c1ccc(OC)c(=O)cc1[C@@H](NC(=O)CCC(=O)O[C@H]1[C@H](O)[C@@H](CO)OC(O)[C@@H]1O)CC2` (some centres not stated): the figures for the IC50 in the data set on HT-29 [4], in the data set on MCF7 and in the data set on Hep 3B2 were 0.98 µM, 0.76 µM and 7.03 µM, respectively. For the same compound, the “Ratio IC50” value in [5] stood at 7.17; in data set [6], 9.25.

Regarding `COc1cc2c(c(OC)c1OC)-c1ccc(OC)c(=O)cc1[C@@H](NC(=O)CCCC(=O)O[C@H]1[C@H](O)[C@@H](CO)OC(O)[C@@H]1O)CC2` (some centres not stated), the IC50 in the data set on HT-29 [4] was found to be 6.47 µM; in the data set with MCF7, 7.17 µM; in the data set on Hep 3B2, 8.91 µM. Moreover, the “Ratio IC50” value in data set [5] was found to be 1.38; in [6], 1.24.

Take `COc1cc2c(c(OC)c1OC)-c1ccc(OC)c(=O)cc1[C@@H](NC(=O)CSCC(=O)OC[C@H]1OC(O)[C@@H](O)[C@@H](O)[C@@H]1O)CC2` (some centres not stated): the results for the half-inhibitory concentration (IC50) in the data set on HT-29 [4], with MCF7 and in the data set on Hep 3B2 were 2.11 µM, 6.05 µM and more than 10 µM, respectively.

On to `COc1cc2c(c(OC)c1OC)-c1ccc(OC)c(=O)cc1[C@@H](NC(=O)CCC(=O)OC[C@H]1OC(O)[C@@H](O)[C@@H](O)[C@@H]1O)CC2` (some centres not stated), for which the “Ratio IC50” value in data set [6] is recorded as 4.34. The IC50 was 0.67 µM in the data set with MCF7 and 2.91 µM in the data set with Hep 3B2.

For `COc1cc2c(c(OC)c1OC)-c1ccc(OC)c(=O)cc1[C@@H](NC(=O)CCCC(=O)OC[C@H]1OC(O)[C@H](O)[C@@H](O)[C@@H]1O)CC2` (some centres not stated), the IC50 in the data set with HT-29 [4] is 4.14 µM; in the data set on MCF7, more than 10 µM; with Hep 3B2, more than 10 µM.

In the case of `COc1cc2c(c(OC)c1OC)-c1ccc(OC)c(=O)cc1[C@@H](NC(=O)CCCCC(=O)OC[C@H]1OC(O)[C@H](O)[C@@H](O)[C@@H]1O)CC2` (some centres not stated), the half-inhibitory concentration (IC50) in the data set with HT-29 [4] is 9.73 µM; in the data set with MCF7, more than 10 µM; in the data set on Hep 3B2, more than 10 µM.

Consider `COc1cc2c(c(OC)c1OC)-c1ccc(OC)c(=O)cc1[C@@H](NC(=O)CSCC(=O)O[C@H]1[C@H](O)[C@@H](CO)OC(O)[C@@H]1O)CC2` (some centres not stated), for which the viability at 8 µM in the data set on HT-29 [7] was determined as 20.1%; in the data set with HT-29 [10], 12.5%. Further, the results for the IC50 in the data set with HT-29 [4], with MCF7 and in the data set with Hep 3B2 were 0.79 µM, 0.65 µM and 8.56 µM, respectively. The “Ratio IC50” value in data set [5] was found to be 10.84; in [6] it was 13.17. In addition, the figures for the viability at 4 µM in the data set with HT-29 [8] and with HT-29 [9] were 22.8% and 13.2%, respectively. In addition, in data set [1], the IC50 at 72 h worked out at 1.88 µM. Moreover, at Tubulin (Sus scrofa), the inhibition result was “Dde”. Moreover, the inhibition result on Tubulin (Homo sapiens) [11] and on Tubulin (Homo sapiens) [12] was “Active” each time.

For the compound `COc1cc2c(c(OC)c1OC)-c1ccc(OC)c(=O)cc1[C@@H](NC(=O)CCC(=O)OC[C@H]1OC(O)[C@H](O)[C@@H](O)[C@@H]1O)CC2` (some centres not stated), the IC50 in the data set with HT-29 [4] worked out at 1.09 µM; in the data set on MCF7, 1.15 µM; in the data set with Hep 3B2, 6.35 µM. Further, the “Ratio IC50” value in data set [5] is listed as 5.83; in data set [6], 5.52.

Values taken from ChEMBL document CHEMBL5154756 (Bioorg Med Chem, 2022).
